The target of experiment [1] is Sigma intracellular receptor 2 (Homo sapiens, UniProt Q5BJF2). As to the kind of experiment: GPCRScan assay: inhibition of Sigma 2. Set-up: radioligand conc. used [nm] 5.0, parental cells HEKT.
The target in experiment [2] is Activated CDC42 kinase 1 (Homo sapiens) (UniProt Q07912). To be noted: Compound concentration 1.0 uM.
Experiment [3] addresses Activin receptor type-1-like (Homo sapiens) (UniProt P37023). To be noted: Compound concentration 1.0 uM.
Experiment [4] concerns the target Calcium/calmodulin-dependent protein kinase type II subunit alpha (Homo sapiens) (UniProt Q9UQM7). To be noted: Compound concentration 1.0 uM.
Experiment [5] has as its target Cyclin-dependent kinase-like 3 (Homo sapiens) (UniProt Q8IVW4). To be noted: Compound concentration 1.0 uM.
For experiment [6], the target named is Serine/threonine-protein kinase 35 (Homo sapiens) (UniProt Q8TDR2). To be noted: Compound concentration 1.0 uM.
In experiment [7] the target is Epidermal growth factor receptor (Homo sapiens) (UniProt P00533). To be noted: Compound concentration 1.0 uM.
Chain of Epidermal growth factor receptor (Homo sapiens) (P00533 whole entry): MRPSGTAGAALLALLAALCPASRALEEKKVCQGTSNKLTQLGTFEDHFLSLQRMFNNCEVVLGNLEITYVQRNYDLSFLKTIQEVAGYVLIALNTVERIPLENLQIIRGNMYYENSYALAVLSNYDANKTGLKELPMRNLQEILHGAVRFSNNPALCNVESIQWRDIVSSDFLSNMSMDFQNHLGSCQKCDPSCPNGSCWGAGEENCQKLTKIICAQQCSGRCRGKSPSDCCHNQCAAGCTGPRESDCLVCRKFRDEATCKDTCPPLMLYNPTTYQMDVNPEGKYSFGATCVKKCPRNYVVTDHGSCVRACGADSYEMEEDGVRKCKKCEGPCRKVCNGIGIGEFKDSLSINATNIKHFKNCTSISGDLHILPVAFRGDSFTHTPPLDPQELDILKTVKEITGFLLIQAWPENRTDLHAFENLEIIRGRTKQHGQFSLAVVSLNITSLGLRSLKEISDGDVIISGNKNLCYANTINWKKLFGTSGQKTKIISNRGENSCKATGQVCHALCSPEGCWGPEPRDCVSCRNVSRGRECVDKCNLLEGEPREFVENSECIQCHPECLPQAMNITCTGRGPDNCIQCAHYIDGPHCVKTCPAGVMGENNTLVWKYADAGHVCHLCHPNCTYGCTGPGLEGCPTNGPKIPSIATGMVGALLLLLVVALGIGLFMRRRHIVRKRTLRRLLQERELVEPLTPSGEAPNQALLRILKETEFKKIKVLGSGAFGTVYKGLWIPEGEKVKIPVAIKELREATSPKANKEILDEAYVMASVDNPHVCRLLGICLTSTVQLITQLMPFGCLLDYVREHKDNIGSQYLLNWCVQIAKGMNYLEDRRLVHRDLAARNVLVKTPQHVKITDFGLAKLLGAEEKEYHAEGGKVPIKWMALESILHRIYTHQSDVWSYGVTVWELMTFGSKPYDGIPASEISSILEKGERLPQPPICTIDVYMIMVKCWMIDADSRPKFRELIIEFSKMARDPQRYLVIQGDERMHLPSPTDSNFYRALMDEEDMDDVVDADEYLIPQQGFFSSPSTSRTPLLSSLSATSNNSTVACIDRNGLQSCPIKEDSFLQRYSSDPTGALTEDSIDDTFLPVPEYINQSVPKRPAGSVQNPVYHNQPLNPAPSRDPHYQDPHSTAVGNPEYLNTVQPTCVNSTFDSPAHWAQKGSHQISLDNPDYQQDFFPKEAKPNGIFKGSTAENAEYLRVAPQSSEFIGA
Experiment [8] concerns the target Tyrosine-protein kinase Fer (Homo sapiens) (UniProt P16591). To be noted: Compound concentration 1.0 uM.
Experiment [9] has as its target Tyrosine-protein kinase Fyn (Homo sapiens) (UniProt P06241). To be noted: Compound concentration 1.0 uM.
The target in experiment [10] is Mitogen-activated protein kinase 8 (Homo sapiens) (UniProt P45983). To be noted: Compound concentration 1.0 uM.
Chain of Mitogen-activated protein kinase 8 (Homo sapiens) (P45983 whole entry): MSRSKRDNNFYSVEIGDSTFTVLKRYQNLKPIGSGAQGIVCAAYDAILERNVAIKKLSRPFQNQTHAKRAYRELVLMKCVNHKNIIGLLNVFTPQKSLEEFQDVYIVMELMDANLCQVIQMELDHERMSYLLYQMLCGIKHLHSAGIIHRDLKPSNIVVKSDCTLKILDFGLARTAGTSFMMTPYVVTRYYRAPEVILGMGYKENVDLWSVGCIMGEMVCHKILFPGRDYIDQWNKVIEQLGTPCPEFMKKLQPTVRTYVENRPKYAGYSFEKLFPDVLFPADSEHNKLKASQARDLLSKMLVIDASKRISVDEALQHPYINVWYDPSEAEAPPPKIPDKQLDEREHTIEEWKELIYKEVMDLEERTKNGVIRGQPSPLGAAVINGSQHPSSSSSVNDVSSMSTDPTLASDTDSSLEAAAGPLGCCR
The target in experiment [11] is T1, Serine/threonine-protein kinase Nek1 (Homo sapiens) (UniProt Q96PY6).
T1 sequence (whole entry): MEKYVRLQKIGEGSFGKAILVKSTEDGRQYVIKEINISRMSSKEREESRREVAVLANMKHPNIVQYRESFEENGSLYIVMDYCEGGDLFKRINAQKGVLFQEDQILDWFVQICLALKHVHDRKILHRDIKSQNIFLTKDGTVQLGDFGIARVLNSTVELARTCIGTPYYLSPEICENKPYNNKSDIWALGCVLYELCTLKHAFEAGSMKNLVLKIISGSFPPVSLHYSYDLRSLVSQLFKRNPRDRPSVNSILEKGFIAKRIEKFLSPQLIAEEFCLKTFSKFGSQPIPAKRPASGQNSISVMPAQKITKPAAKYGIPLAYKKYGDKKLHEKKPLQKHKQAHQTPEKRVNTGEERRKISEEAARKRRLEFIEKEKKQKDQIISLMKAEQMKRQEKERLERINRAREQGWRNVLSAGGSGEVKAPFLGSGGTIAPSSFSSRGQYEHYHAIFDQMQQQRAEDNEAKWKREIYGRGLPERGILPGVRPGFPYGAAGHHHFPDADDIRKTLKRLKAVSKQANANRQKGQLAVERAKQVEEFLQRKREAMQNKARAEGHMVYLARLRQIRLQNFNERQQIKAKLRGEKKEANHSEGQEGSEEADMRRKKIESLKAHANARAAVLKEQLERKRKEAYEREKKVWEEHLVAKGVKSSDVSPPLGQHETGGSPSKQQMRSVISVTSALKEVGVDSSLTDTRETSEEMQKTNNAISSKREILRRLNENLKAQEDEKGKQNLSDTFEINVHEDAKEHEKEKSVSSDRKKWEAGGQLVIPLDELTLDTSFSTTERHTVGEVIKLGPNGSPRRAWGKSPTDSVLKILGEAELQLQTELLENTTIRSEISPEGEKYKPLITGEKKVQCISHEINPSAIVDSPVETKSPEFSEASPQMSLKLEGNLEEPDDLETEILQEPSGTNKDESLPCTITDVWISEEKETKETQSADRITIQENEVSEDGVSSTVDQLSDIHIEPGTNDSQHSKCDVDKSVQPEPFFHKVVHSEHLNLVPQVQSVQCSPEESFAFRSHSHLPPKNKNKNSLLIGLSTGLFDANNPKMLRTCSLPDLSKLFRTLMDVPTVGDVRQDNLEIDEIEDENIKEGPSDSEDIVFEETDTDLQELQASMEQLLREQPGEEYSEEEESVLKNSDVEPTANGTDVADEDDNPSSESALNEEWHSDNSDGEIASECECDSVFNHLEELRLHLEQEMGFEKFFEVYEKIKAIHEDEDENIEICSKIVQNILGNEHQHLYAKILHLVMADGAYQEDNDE
To be noted: Compound concentration 1.0 uM.

The target in experiment [12] is Serine/threonine-protein kinase PAK 6 (Homo sapiens) (UniProt Q9NQU5). To be noted: Compound concentration 1.0 uM.
Experiment [13] has as its target Serine/threonine-protein kinase PLK3 (Homo sapiens) (UniProt Q9H4B4). To be noted: Compound concentration 1.0 uM.
Experiment [14] concerns the target T2, cGMP-dependent protein kinase 2 (Homo sapiens) (UniProt Q13237).
T2 sequence (whole entry): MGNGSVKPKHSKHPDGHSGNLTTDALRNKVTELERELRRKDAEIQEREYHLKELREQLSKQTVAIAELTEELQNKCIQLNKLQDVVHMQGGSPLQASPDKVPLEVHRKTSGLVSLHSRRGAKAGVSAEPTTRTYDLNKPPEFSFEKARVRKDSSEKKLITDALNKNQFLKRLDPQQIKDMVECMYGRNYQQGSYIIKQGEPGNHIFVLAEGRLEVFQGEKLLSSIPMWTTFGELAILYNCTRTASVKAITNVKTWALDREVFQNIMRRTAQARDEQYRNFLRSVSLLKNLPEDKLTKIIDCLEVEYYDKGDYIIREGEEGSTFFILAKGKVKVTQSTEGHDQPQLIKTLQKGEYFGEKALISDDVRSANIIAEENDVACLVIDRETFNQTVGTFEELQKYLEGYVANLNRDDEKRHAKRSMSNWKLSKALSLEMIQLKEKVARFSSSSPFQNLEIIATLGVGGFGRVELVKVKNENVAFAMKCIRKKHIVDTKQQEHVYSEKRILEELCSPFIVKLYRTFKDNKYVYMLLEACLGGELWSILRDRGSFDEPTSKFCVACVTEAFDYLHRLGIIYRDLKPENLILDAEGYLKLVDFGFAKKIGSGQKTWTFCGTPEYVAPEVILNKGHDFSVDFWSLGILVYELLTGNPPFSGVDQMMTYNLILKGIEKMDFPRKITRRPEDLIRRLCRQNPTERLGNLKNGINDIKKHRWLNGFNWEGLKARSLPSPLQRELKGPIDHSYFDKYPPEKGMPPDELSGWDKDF
To be noted: Compound concentration 1.0 uM.

Experiment [15] deals with Serine/threonine-protein kinase SIK1 (Homo sapiens) (UniProt P57059). To be noted: Compound concentration 1.0 uM.
Chain of Serine/threonine-protein kinase SIK1 (Homo sapiens) (P57059 whole entry): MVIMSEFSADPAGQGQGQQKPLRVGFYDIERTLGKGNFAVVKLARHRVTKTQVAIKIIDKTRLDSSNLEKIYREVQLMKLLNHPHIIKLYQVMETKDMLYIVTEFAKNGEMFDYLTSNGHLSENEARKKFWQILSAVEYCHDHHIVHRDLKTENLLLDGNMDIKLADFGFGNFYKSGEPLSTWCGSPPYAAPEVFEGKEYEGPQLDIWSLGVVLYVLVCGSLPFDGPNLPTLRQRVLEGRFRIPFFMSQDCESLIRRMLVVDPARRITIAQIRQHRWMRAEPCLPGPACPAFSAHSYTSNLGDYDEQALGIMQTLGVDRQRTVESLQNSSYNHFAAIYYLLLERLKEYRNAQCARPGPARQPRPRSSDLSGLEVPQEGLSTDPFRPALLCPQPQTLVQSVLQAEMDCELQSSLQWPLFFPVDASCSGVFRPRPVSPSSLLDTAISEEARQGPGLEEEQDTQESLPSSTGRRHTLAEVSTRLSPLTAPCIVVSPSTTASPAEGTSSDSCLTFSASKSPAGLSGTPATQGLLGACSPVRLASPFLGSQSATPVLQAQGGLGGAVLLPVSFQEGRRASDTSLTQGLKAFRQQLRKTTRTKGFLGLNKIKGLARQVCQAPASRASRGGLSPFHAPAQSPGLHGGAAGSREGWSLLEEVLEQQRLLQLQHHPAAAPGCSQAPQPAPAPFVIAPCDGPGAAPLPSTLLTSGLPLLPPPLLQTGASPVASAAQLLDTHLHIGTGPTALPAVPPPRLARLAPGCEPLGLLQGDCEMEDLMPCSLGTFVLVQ
Experiment [16] deals with Serine/threonine-protein kinase PLK2 (Homo sapiens) (UniProt Q9NYY3). To be noted: Compound concentration 1.0 uM.
The target of experiment [17] is TGF-beta receptor type-2 (Homo sapiens) (UniProt P37173). To be noted: Compound concentration 1.0 uM.
Experiment [18] has as its target PI3-kinase p110-alpha/p85-alpha (Homo sapiens) (UniProt P27986+P42336). To be noted: Compound concentration 1.0 uM.

Chain of Tyrosine-protein kinase Fer (Homo sapiens) (P16591 whole entry, looked up): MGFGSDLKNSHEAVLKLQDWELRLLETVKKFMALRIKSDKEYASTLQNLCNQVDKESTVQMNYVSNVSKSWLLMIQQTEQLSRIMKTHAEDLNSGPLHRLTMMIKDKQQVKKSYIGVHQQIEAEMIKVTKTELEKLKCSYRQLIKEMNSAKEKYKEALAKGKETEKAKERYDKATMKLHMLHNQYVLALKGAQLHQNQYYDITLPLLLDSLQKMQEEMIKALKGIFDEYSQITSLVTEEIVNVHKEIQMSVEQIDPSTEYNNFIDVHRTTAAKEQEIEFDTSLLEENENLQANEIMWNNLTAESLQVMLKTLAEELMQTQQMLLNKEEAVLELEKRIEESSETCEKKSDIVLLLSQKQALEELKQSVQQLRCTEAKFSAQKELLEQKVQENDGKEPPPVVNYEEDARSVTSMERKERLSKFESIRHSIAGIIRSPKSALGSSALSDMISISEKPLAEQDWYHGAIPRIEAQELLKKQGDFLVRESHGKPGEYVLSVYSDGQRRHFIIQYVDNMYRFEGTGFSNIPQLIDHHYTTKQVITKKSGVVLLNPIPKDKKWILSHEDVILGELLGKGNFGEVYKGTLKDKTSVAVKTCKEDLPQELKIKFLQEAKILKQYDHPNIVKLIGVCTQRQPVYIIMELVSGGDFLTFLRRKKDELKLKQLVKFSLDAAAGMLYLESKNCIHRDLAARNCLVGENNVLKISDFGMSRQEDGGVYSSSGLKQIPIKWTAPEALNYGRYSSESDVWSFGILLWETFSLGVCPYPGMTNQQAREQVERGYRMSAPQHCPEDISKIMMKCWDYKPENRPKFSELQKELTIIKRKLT
Chain of Cyclin-dependent kinase-like 3 (Homo sapiens) (Q8IVW4 whole entry, looked up): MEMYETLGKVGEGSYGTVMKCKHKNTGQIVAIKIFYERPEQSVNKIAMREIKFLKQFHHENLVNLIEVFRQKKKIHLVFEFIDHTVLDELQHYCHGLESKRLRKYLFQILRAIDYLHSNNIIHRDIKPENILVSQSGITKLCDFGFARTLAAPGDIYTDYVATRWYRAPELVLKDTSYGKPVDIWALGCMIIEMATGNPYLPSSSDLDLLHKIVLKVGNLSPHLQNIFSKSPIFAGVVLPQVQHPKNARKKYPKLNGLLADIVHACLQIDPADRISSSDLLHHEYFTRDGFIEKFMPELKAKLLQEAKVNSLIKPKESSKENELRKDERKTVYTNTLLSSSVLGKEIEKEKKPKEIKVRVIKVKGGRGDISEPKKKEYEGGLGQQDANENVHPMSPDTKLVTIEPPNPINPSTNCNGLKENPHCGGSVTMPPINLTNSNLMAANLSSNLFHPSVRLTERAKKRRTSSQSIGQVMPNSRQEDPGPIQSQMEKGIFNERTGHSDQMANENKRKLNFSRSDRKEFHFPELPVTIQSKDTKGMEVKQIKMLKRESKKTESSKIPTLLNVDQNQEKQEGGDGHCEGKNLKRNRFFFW
Chain of Tyrosine-protein kinase Fyn (Homo sapiens) (P06241 2-537 limits assumed): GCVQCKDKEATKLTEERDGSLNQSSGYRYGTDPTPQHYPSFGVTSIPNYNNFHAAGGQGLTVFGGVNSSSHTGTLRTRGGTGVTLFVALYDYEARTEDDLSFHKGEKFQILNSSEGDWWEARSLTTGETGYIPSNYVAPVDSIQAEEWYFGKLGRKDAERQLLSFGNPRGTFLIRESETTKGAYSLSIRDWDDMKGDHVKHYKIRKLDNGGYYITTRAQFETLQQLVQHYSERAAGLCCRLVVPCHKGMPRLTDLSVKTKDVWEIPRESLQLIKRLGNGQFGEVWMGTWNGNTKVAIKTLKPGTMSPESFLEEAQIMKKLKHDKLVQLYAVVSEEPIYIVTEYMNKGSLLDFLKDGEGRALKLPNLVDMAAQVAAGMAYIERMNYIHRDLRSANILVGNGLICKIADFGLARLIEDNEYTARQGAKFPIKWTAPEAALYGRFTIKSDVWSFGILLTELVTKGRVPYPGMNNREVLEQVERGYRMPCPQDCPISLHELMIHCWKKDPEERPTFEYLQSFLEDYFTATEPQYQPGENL
Chain of Sigma intracellular receptor 2 (Q5BJF2 whole entry): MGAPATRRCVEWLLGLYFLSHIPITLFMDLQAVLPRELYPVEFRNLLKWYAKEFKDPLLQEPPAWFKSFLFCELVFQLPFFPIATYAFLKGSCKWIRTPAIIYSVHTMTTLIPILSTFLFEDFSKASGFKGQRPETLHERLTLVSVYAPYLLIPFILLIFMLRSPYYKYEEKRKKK
Chain of Calcium/calmodulin-dependent protein kinase type II subunit alpha (Homo sapiens) (Q9UQM7 whole entry): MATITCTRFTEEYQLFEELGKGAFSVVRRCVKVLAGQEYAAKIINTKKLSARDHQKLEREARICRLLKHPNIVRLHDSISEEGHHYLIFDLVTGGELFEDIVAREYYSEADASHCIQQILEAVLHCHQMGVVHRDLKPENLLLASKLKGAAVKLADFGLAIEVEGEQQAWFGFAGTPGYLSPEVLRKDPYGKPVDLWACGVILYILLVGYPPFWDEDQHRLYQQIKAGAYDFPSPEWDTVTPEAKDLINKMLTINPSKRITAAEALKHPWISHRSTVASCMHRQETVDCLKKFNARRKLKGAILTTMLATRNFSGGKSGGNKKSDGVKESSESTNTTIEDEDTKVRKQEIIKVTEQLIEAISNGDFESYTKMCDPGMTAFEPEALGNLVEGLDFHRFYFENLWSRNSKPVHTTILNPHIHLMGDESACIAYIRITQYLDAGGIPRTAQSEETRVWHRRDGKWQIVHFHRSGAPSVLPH

By Ki is commonly meant the equilibrium dissociation constant of an inhibitor or competing ligand from its target. `Cc1nc(C2CCN(C(=O)c3ccc(OC(F)(F)F)cc3N)CC2)c2ncc(N3CCN(C)CC3)cc2n1` [BAY-693]: in [1], the Ki came to 4.9 µM.
Turning to `CN1CCN(c2cnc3c(C4CCN(C(=O)c5ccc(OC(F)(F)F)cc5N)CC4)ncnc3c2)CC1` [BAY-885], the % residual kinase activity in experiment [2] was 101%; in experiment [3], 118%; in experiment [4] it was 108%; in experiment [5], 113%; in experiment [6], 116%; in [7], 105%. Besides, the % residual kinase activity in experiment [8] was 38%; in [9] it was 129%; in [10], 104%; in experiment [11] it was 98%; in experiment [12], 103%; in experiment [13], 107%. For the same compound, the % residual kinase activity in experiment [14] was 127%; in [15], 99%; in experiment [16], 119%; in experiment [17], 108%; in experiment [18], 98%.

The values are drawn from ChEMBL document CHEMBL4507268 (2021).
